Measured values as given in patent publication US11208427B2, “Dicaffeoyl spermidine derivative glycosides and use thereof” (Jinan University, priority 2016, dated 2021).
Marks after values point to notes of the source that are not given here.

Assays:
[1] = tested on: respiratory syncytial virus (RSV); assay: microbe, parasite or virus in culture; format: cell-based; conditions: for IC50: RSV in HEp-2 cells, CPE, 60-72 hours; for SI = CC50/IC50: RSV, HEp-2 cells
Method: (§1) 1) HEp-2 cells were seeded in 96-well cell culture plates at 100 μL/well and the cell density was 2.5×10^5/mL. The cells were cultured in a 37° C., 5% CO2 incubator and grown into a cell single layer over about 20 h.
2) The culture fluid in the 96-well plate was discarded and the sample to be tested was half diluted by using maintenance solution with the starting concentration of the monomeric compound being 50 μM, and 50 μL of sample and 50 μL of 100×TCID50 of virus dilution being added into each well. The positive control drug Ribavirin group, virus control group and cell control group were set and placed in a 37° C., 5% CO2 incubator for culture.
3) The culture was continued for 60-72 hours, and the viral lesions in each group were recorded when the lesions were completely developed in the virus control group.
4) The virus-induced cytopathic effect was recorded as follows: no cellular lesion was recorded as “−”, 0 to 25% cellular lesions was recorded as “+”, 25% to 50% cellular lesion was recorded as “++”, 50%˜75% of cellular lesion was recorded as “+++”, and 75% to 100% of cellular lesion was recorded as “++++”. The sample concentration corresponding to the “++” lesion level is the half inhibitory concentration IC50 of the sample against the virus.
5) Three replicates were performed independently for each experiment.

[2] = tested on: HEp-2 cells; assay: Cytotoxicity assay (MTT); format: cell-based; conditions: 72 hours
Method: as §1
(§2) 2) The culture fluid in the 96-well plate was discarded and the sample to be tested was half diluted into different concentrations by using maintenance solution. For each dilution, 3 replicate wells were set at 100 μL/well, and cell control wells were also set at the same time. Then they were placed in the incubator to continue the culture.
(§3) 3) The cytopathic effect caused by sample toxicity was observed every day. After 72 hours, the culture solution was discarded, and according to the MTT method, 30 μL of 5 mg/mL MTT solution was added into each well. They were placed in the incubator to continue the incubation for 4 h in dark.

[3] = tested on: Senile dementia fruit fly (Aβ42; P35*H29.3); assay: learning and memory (olfactory short-term memory, T-Maze) of Senile dementia fruit fly; format: in vivo; conditions: performance index, 100 μM in feed, n = 6
Text: W^1118 (isoCJ1), as a background fruit fly of control group in the experiment, was abbreviated as “2U”. The fruit flies that successfully introduced with the pathogenic Aβ42 protein were (UAS-Aβ42; abbreviated as “H29.3”). This strain of fruit flies was hybridized with the fruit fly expressing the Gal4 promoter in whole brain, and the fruit fly strain carrying elav-GAL4^c155 (P35) and Aβ42 was obtained.
Three groups of drug-free control of healthy fruit fly, drug-free control of disease fruit fly, and dose disease fruit fly were set in the experiment.
All parents of tested fruit flies were housed and propagated at a constant temperature of 24° C. and a humidity of 42% RH (Relative humidity). On the first day after the emergence of the fruit flies, the fruit flies of control group and disease group, as well as the fruit flies to be administered were anesthetized with carbon dioxide, and then the fruit flies of the correct characters were selected into the glass tube containing food. During the dosing period, all tested fruit flies were kept in an incubator with a constant temperature of 28° C. and a constant humidity of 42% to ensure the drug taking efficiency of the fruit flies. Each day the fruit flies were administered for 4 hours, and the drug was administered from the second day after the fruit flies were selected until the 8th day.
The drugs administered were prepared on the second day after the fruit fly selection, and were administered to the fruit flies on the day of preparation. The drugs were dissolved by 100% DMSO to a concentration of 10 mM. When preparing the working solution, the 10 mM stock solution was diluted to 100 μM with 4% sucrose. In addition, the fruit flies of control group were fed sucrose water containing 1% DMSO. For each Performance Index, two tubes of fruit fly groups are required, each tube containing about 100 fruit flies.
Experiments were conducted in a light proof behavior room with constant temperature of 25° C., constant humidity of 70%. The method can be found in references^[1-3].
1) During the training stage, about 100 flies were loaded into a training tube provided with a copper mesh cross electrode. Two kinds of odors of octanol (OCT) and methylcyclohexanol (MCH) were successively introduced for each 60 s with an intervals for 45 s of fresh air. 60 V pulsed electrical shock stimulation (US, pulse duration 1.5 s, interval 3.5 s) was applied to the fruit flies while introducing the 1st odor. No electrical shock was applied when the second odor (CS−) was introduced. Thereby one training cycle was completed.
2) In the transient memory (learning) ability test, the fruit flies that completed one training cycle were immediately transferred to the selection point of T-Maze, while CS+ and CS− were introduced from the opposite two directions. After two minutes of selection, the fruit flies on both sides were collected separately and counted after anesthesia or sacrifice. The calculation formula for the performance index (PI) is as follows: PI=[(CS−)−(CS+)]/[(CS−)+(CS+)]×100.
Using OCT and MCH as CS+ for training and testing respectively, the average of the two PIs obtained was used as PI for one experiment. […] When performing the activity test, the short-term memory deficit tests for the olfactory sensation of the non-administered healthy flies with the same genetic background (2U*H29.3), non-administered Senile dementia disease flies (P35*H29.3), and test drug administered Senile dementia disease flies were also conducted, and their total learning and memory performance indexes (PIs) was calculated respectively. The learning and memory performance index of the test drug administered Senile dementia disease flies was compared with the performance index of the non-administered healthy flies with the same genetic background (2U*H29.3), and the performance index of the non-administered Senile dementia disease flies (P35*H29.3), to evaluate effect of the test drugs against Senile dementia. […]

[4] = oxygen radical absorbance capacity (ORAC) experiment; conditions: relative to Trolox; AAPH, fluorescein
Method: The antioxidant activity of the compounds was evaluated by using the oxygen radical absorbance capacity (ORAC) experiment. The detailed experimental procedure is as follows. 0.248 g of AAPH (2,2′-azobisisobutylamidine dihydrochloride) was added to a 50 mL phosphate buffer system to formulate a 18.3 mM AAPH stock solution. 20 μL of phosphate buffer, 20 μL solution of sample to be tested or standard substance Trolox (concentration of 6.25 μM) and 20 μL of fluorescent substance of disodium fluorescein (FL, concentration of 630 nM) were added to the wells of a 96-well plate in order. Then, 140 μL of AAPH (concentration of 18.3 mM) was quickly added to the wells of the 96-well plate, which was immediately placed in a GENios […] microplate reader manufactured by Tecan, Switzerland, the excitation wavelength was set as 485 nm and the emission wavelength was set as 527 nm. The fluorescence intensity was measured every 2 minutes and recorded for a total of 100 min.
The antioxidant capacity of the active substance is calculated as follows: Relative ORAC value=(AUCsample−AUCblank)/(AUCtrolox−AUCblank). Wherein, AUCsample refers to the integral area under the fluorescence decay curve of the test sample, AUCtrolox refers to the integral area under the fluorescence decay curve of the standard substance Trolox, and AUCblank refers to the integral area under the fluorescence decay curve when the test sample or the standard substance Trolox is not added.

[5] = Cytotoxicity assay (MTT); format: cell-based; conditions: human, HEp-2 cells
Method: as §1, §2, §3

Row | SMILES | IC50 [1] | SI = CC50/IC50 [1] | CC50 [2] | MNCC [2] | PI (100 μM) ([3]; experiment b) | ORAC value [4] | PI (100 μM) ([3]; experiment c) | PI (100 μM) ([3]; experiment a) | IC50 ([1]; human respiratory syncytial virus) | CC50 at 72 h [5]
1 | O=C(CCc1ccc(O[C@@H]2O[C@H](CO)[C@@H](O)[C@H](O)[C@H]2O)c(O)c1)NCCCCNCCCNC(=O)CCc1ccc(O[C@@H]2O[C@H](CO)[C@@H](O)[C@H](O)[C@H]2O)c(O)c1 [formula XIII] | 25 µM | >4 | > 100 µM | >100 µM | 42.5 ± 3.0*** | 2.06 ± 0.04 μmol TE/μmol | – | – | – | –
2 | O=C(/C=C/c1ccc(O)c(O[C@@H]2O[C@H](CO)[C@@H](O)[C@H](O)[C@H]2O)c1)NCCCNCCCCNC(=O)CCc1ccc(O)c(O[C@@H]2O[C@H](CO)[C@@H](O)[C@H](O)[C@H]2O)c1 [formula VII] | – | >2 | > 100 µM | >100 µM | 44.6 ± 2.5*** | 1.02 ± 0.02 μmol TE/μmol | – | – | – | –
3 | O=C(CCc1ccc(O)c(O)c1)NCCCCNCCCNC(=O)CCc1ccc(O)c(O[C@@H]2O[C@H](CO)[C@@H](O)[C@H](O)[C@H]2O)c1 [formula XI] | 25 µM | >4 | > 100 µM | >100 µM | 37.2 ± 2.9*** | 2.07 ± 0.03 μmol TE/μmol | – | – | – | –
4 | O=C(CCc1ccc(O)c(O[C@@H]2O[C@H](CO)[C@@H](O)[C@H](O)[C@H]2O)c1)NCCCCNCCCNC(=O)CCc1ccc(O[C@@H]2O[C@H](CO)[C@@H](O)[C@H](O)[C@H]2O)c(O)c1 [formula XIV] | – | >2 | > 100 µM | >100 µM | – | 1.81 ± 0.05 μmol TE/μmol | 44.6 ± 1.2*** | – | – | –
5 | O=C(/C=C/c1ccc(O[C@@H]2O[C@H](CO)[C@@H](O)[C@H](O)[C@H]2O)c(O)c1)NCCCNCCCCNC(=O)CCc1ccc(O)c(O)c1 [formula V] | 25 µM | >4 | > 100 µM | >100 µM | – | 2.96 ± 0.03 μmol TE/μmol | – | 35.0 ± 1.3* | – | –
6 | CC12CC3CC(C)(C1)CC(N)(C3)C2 [Memantine, reference compound] | – | – | – | – | 42.7 ± 0.9*** | – | 44.2 ± 2.1*** | 43.1 ± 0.9*** | – | –
7 | O=C(/C=C/c1ccc(O)c(O[C@@H]2O[C@H](CO)[C@@H](O)[C@H](O)[C@H]2O)c1)NCCCNCCCCNC(=O)CCc1ccc(O)c(O)c1 [formula III] | 25 µM | >4 | > 100 µM | >100 µM | – | 1.87 ± 0.04 μmol TE/μmol | – | 42.9 ± 1.6*** | – | –
8 | O=C(CCc1ccc(O)c(O[C@@H]2O[C@H](CO)[C@@H](O)[C@H](O)[C@H]2O)c1)NCCCCNCCCNC(=O)CCc1ccc(O)c(O[C@@H]2O[C@H](CO)[C@@H](O)[C@H](O)[C@H]2O)c1 [formula XII] | – | >2 | > 100 µM | >100 µM | 33.5 ± 3.0** | 1.23 ± 0.04 μmol TE/μmol | – | – | – | –
9 | O=C(/C=C\c1ccc(O)c(O[C@@H]2O[C@H](CO)[C@@H](O)[C@H](O)[C@H]2O)c1)NCCCNCCCCNC(=O)CCc1ccc(O[C@@H]2O[C@H](CO)[C@@H](O)[C@H](O)[C@H]2O)c(O)c1 [formula VIII] | – | >2 | > 100 µM | >100 µM | 32.2 ± 2.3* | 3.07 ± 0.02 μmol TE/μmol | – | – | – | –
10 | O=C(O[C@@H]1Cc2c(O)cc(O)cc2O[C@@H]1c1cc(O)c(O)c(O)c1)c1cc(O)c(O)c(O)c1 [EGCG, epigallocatechin gallate, reference compound] | – | – | – | – | – | 1.48 ± 0.02 μmol TE/μmol | – | – | – | –
11 | O=C(/C=C/c1ccc(O)c(O)c1)NCCCNCCCCNC(=O)CCc1ccc(O)c(O[C@@H]2O[C@H](CO)[C@@H](O)[C@H](O)[C@H]2O)c1 [formula IV] | 25 µM | >4 | > 100 µM | >100 µM | – | 1.73 ± 0.04 μmol TE/μmol | – | 42.2 ± 2.1*** | – | –
12 | O=C(/C=C/c1ccc(O)c(O)c1)NCCCNCCCCNC(=O)CCc1ccc(O[C@@H]2O[C@H](CO)[C@@H](O)[C@H](O)[C@H]2O)c(O)c1 [formula II] | 25 µM | >4 | > 100 µM | >100 µM | – | 2.04 ± 0.04 μmol TE/μmol | – | 35.5 ± 3.8* | – | –
13 | NC(=O)c1ncn([C@@H]2O[C@H](CO)[C@@H](O)[C@H]2O)n1 [Ribavirin, reference compound] | – | 15 | – | 15.32 ± 4.31 µM | – | – | – | – | 2.5 µM | 37.9 ± 3.82 µM
